Data: patent US20240262803A1, “COMPOUNDS, COMPOSITIONS AND METHODS OF TREATING DISORDERS” (Chungdu Anticancer Bioscience Ltd, priority 2021, published 2024)
“Also recorded” adds a separate entry of the source. Read-outs that look alike come from different tables or passages of the source.

Assays:
[1] = tested on: cervical cancer cell line Hela; assay: MTT assay of cellular proliferation, Hela; type: cell-based; conditions: Homo sapiens, read-out: EC50: Concentration that inhibits 50% of proliferation
In short: (§1)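 First, mid-log cells are seeded in DMEM containing 5% FBS and grown 15˜24 h to 20˜30% confluence. Next, compounds are added across 1 nM to 10 μM. Finally, MTT is given for 3˜4 h, formazan is dissolved and read at A570 to derive EC50.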

[2] = tested on: human colon cancer cell line HCT116; assay: Xenograft assay, HCT116; type: in vivo; conditions: HCT116 subcutaneous xenograft, Nu/Nu mice, oral gavage twice a day for 9 days, FIG. 4
Description: (§2) Xenografts were initiated in immunocompromised (Nu/Nu) mice with the human lung adenocarcinoma cell line NCI-H23 (FIG. 3) and the human colon cancer cell line HCT116 (FIG. 4). Five million cells were injected subcutaneously into each mouse and treatment was initiated when the average tumor volumes reached 150 mm3 (n=5/groups). Tumor-bearing mice were randomized into different groups to receive either vehicle or indicated compounds. The compounds were administered through oral gavage twice a day for 9 days. Day 0 on the x-axis indicates the day that treatment was initiated. For these experiments, all compounds were first dissolved in DMSO and then diluted 1:10 into a mixture containing 50% PEG300 and 49% PBS, 1% Tween 80, pH2.2. 100 ul of drug solution was administered with each dose. Tumor volumes were determined once every three days and are calculated from digital caliper raw data by using the formula: Volume (mm3)=(L×W^2)/2. The value W (Width) is the smaller of two perpendicular tumor axes and the value L (Length) is the larger of two perpendicular axes. Mean tumor volume growth curves and means are calculated for each treatment group.

RPEMYC^H2B-GFP cells [3] = assay: Mechanism-informed phenotypic screening assay (mitotic arrest, polyploidy; GE IN-Cell Analyzer 2000); type: cell-based; conditions: 20 nM to 20 μM, 24, 48 or 72 hours, read-out: Min. Effective conc. for polyploidy (≥5%)
In short: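 Cells expressing Histone 2B-EGFP (RPEMYC^H2B-GFP) were plated 18-24 h before exposure to compounds at 20 nM to 20 μM. At 24, 48 or 72 h, imaging scored mitotic arrest or change in DNA content. Value is the lowest concentration giving polyploid accumulation at 48 h.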

[4] = tested on: liver cancer cell line T2 HCC; assay: Minimal effective concentration that elicits polyploidy, T2 HCC; type: cell-based; conditions: Mus musculus, read-out: MECP: Minimal effective concentration that elicits polyploidy
[5] = tested on: human lung adenocarcinoma cell line NCI-H23; assay: Xenograft assay, NCI-H23; type: in vivo; conditions: NCI-H23 subcutaneous xenograft, Nu/Nu mice, oral gavage twice a day for 9 days, FIG. 3
Description: as §2

[6] = tested on: breast cancer cell line MDA-MB-231; assay: MTT assay of cellular proliferation, MDA-MB-231; type: cell-based; conditions: Homo sapiens, read-out: EC50: Concentration that inhibits 50% of proliferation
In short: as §1

RPEMYC^H2B-GFP cells [7] = assay: Mechanism-informed phenotypic screening assay (mitotic arrest, polyploidy; GE IN-Cell Analyzer 2000); type: cell-based; conditions: 20 nM to 20 μM, 24, 48 or 72 hours, read-out: Mitotic Arrest (≥5%)
[8] = tested on: gastric cancer cell line NCI-N87; assay: MTT assay of cellular proliferation, NCI-N87; type: cell-based; conditions: Homo sapiens, read-out: EC50: Concentration that inhibits 50% of proliferation
In short: as §1

[9] = tested on: cervical cancer cell line Hela; assay: Minimal effective concentration that elicits polyploidy, Hela; type: cell-based; conditions: Homo sapiens, read-out: MECP: Minimal effective concentration that elicits polyploidy
[10] = tested on: lung cancer cell line NCI-H23; assay: Minimal effective concentration that elicits polyploidy, NCI-H23; type: cell-based; conditions: Homo sapiens, read-out: MECP: Minimal effective concentration that elicits polyploidy
[11] = tested on: liver cancer cell line T2 HCC; assay: MTT assay of cellular proliferation, T2 HCC; type: cell-based; conditions: Mus musculus, read-out: EC50: Concentration that inhibits 50% of proliferation
In short: as §1

[12] = tested on: lung cancer cell line NCI-H23; assay: MTT assay of cellular proliferation, NCI-H23; type: cell-based; conditions: Homo sapiens, read-out: EC50: Concentration that inhibits 50% of proliferation
In short: as §1

[13] = tested on: lung cancer cell line A549; assay: MTT assay of cellular proliferation, A549; type: cell-based; conditions: Homo sapiens, read-out: EC50: Concentration that inhibits 50% of proliferation
In short: as §1

[14] = tested on: colon cancer cell line HCT116; assay: Minimal effective concentration that elicits polyploidy, HCT116; type: cell-based; conditions: Homo sapiens, HCT-116, read-out: MECP: Minimal effective concentration that elicits polyploidy
[15] = tested on: breast cancer cell line MDA-MB-231; assay: Minimal effective concentration that elicits polyploidy, MDA-MB-231; type: cell-based; conditions: Homo sapiens, read-out: MECP: Minimal effective concentration that elicits polyploidy
[16] = tested on: colon cancer cell line HCT116; assay: MTT assay of cellular proliferation, HCT116; type: cell-based; conditions: Homo sapiens, HCT-116, read-out: EC50: Concentration that inhibits 50% of proliferation
In short: as §1

SW480 = assay: Minimal effective concentration that elicits polyploidy, SW480; type: cell-based; conditions: Homo sapiens, read-out: MECP: Minimal effective concentration that elicits polyploidy
[17] = tested on: lung cancer cell line A549; assay: Minimal effective concentration that elicits polyploidy, A549; type: cell-based; conditions: Homo sapiens, read-out: MECP: Minimal effective concentration that elicits polyploidy
[18] = tested on: gastric cancer cell line NCI-N87; assay: Minimal effective concentration that elicits polyploidy, NCI-N87; type: cell-based; conditions: Homo sapiens, read-out: MECP: Minimal effective concentration that elicits polyploidy
[19] = tested on: colon cancer cell line SW460; assay: MTT assay of cellular proliferation, SW460; type: cell-based; conditions: Homo sapiens, SW480; read-out: EC50: Concentration that inhibits 50% of proliferation
In short: as §1

[20] = tested on: lung cancer cell line Calu-6; assay: Minimal effective concentration that elicits polyploidy, Calu-6; type: cell-based, human
[21] = tested on: lung cancer cell line NCI-H460; assay: MTT assay of cellular proliferation, NCI-H460; type: cell-based; conditions: Homo sapiens, read-out: EC50: Concentration that inhibits 50% of proliferation
Description: (§3) Six lung cancer cell lines (NCI-H23, NCI-H460, NCI-H596, NCI-H2170, Calu-6 and A549), two colon cancer cell lines (HCT116 and SW460), one breast cancer cell line MDA-MB-231, one gastric cancer cell line NCI-N87, one prostate cancer cell line DU145, one cervical cancer cell line Hela, and one glioblastoma cell line T98G were obtained from ATCC. The T2 HCC cell line was derived from a mouse liver cancer model initiated by a transgene of MYC (Reference). All cell lines were cultured in DMEM (Gibco, Cleveland, TN, USA) supplemented with 5% fetal bovine serum (Gibco), penicillin (100 U/mL)-streptomycin (100 μg/mL) (Gibco, Cat. No. 15140-122), 2 mM L-glutamine (Gibco, 200 mM solution, Cat. No. 25030081), and 1 mM sodium pyruvate (Gibco, 100 mM solution, Cat. No. 11360070) at 37° C. in a humidified incubator that was maintained at 5% CO2.
(§4) The MTT assay measures cellular metabolic activity as a proxy for cell viability and involves the conversion of the water-soluble yellow dye MTT [3-(4,5-dimethylthiazol-2-yl)-2,5-diphenyltetrazolium bromide] into an insoluble purple formazan by the action of mitochondrial reductase. Formazan is then solubilized and its concentration is determined by measuring the optical density (OD) value at a wavelength of 570 nm. The value is in proportional to the number of live cells with excellent linearity up to ˜10^6 cells per well. The MTT assay was used to determine the EC50 value, the concentration of a compound that leads to 50% inhibition of cellular proliferation. Briefly, cells were split when growing to the mid-Log phase. Cells in 100 μL of culture medium were seeded into each well of 96-well microplates and cultivated for 15˜24 hours to reach a confluence of 20˜30% and were then exposed to drugs at concentrations ranging from 1 nM to 10 μM. At the endpoint, 20 μL of a MTT stock solution in DMSO (5 mg/mL) was added to each well that contains […] of DMEM. The microplates were left in the cell culture incubator for 3˜4 h before subjected to solubilization and determination of formazan at A570 in a microplate reader (BioTek ELX808iu). […] Therefore, these compounds might hold a broad utility in the treatment of a large variety of human malignancies.

[22] = tested on: prostate cancer cell line DU145; assay: MTT assay of cellular proliferation, DU145; type: cell-based; conditions: Homo sapiens, DU-145, read-out: EC50: Concentration that inhibits 50% of proliferation
Description: as §3, §4

[23] = tested on: lung cancer cell line NCI-H2170; assay: Minimal effective concentration that elicits polyploidy, NCI-H2170; type: cell-based, human
[24] = tested on: lung cancer cell line NCI-H596; assay: Minimal effective concentration that elicits polyploidy, NCI-H596; type: cell-based, human
[25] = tested on: lung cancer cell line NCI-H2170; assay: MTT assay of cellular proliferation, NCI-H2170; type: cell-based; conditions: Homo sapiens, read-out: EC50: Concentration that inhibits 50% of proliferation
Description: as §3, §4

[26] = tested on: prostate cancer cell line DU145; assay: Minimal effective concentration that elicits polyploidy, DU145; type: cell-based, human
[27] = tested on: glioblastoma cell line T98G; assay: Minimal effective concentration that elicits polyploidy, T98G; type: cell-based, human
[28] = tested on: lung cancer cell line NCI-H596; assay: MTT assay of cellular proliferation, NCI-H596; type: cell-based; conditions: Homo sapiens, read-out: EC50: Concentration that inhibits 50% of proliferation
Description: as §3, §4

[29] = tested on: lung cancer cell line Calu-6; assay: MTT assay of cellular proliferation, Calu-6; type: cell-based; conditions: Homo sapiens, read-out: EC50: Concentration that inhibits 50% of proliferation
Description: as §3, §4

[30] = tested on: glioblastoma cell line T98G; assay: MTT assay of cellular proliferation, T98G; type: cell-based; conditions: Homo sapiens, read-out: EC50: Concentration that inhibits 50% of proliferation
Description: as §3, §4

[31] = tested on: lung cancer cell line NCI-H460; assay: Minimal effective concentration that elicits polyploidy, NCI-H460; type: cell-based, human

EC50 [1] [nM] | EC50 [6] [nM] | EC50 [8] [nM] | EC50 [11] [nM] | EC50 [12] [nM] | EC50 [13] [nM] | EC50 [16] [nM] | EC50 [19] [nM] | Compound | tumor growth (tumor volume) [2] | minimal effective concentration (RPEMYC^H2B-GFP cells [3]) [µM] | minimal effective concentration [4] [µM] | tumor growth (tumor volume) [5] | minimal effective concentration (RPEMYC^H2B-GFP cells [7]) [µM] | minimal effective concentration [9] [µM] | minimal effective concentration [10] [µM] | minimal effective concentration [14] [µM] | minimal effective concentration [15] [µM] | minimal effective concentration (SW480) [µM] | minimal effective concentration [17] [µM] | minimal effective concentration [18] [µM] | further results
1 to 1000 | 1 to 1000 | 1 to 1000 | 1 to 1000 | 1 to 1000 | 1 to 1000 | 1 to 1000 | 1 to 1000 | COc1cc(Oc2ncccc2-c2ccncc2)cc(C(F)(F)F)c1 [Compound 9, 2-(3-methoxy-5-(trifluoromethyl)phenoxy)-3,4′-bipyridine] | suppress the growth; also recorded: suppressing the tumor growth; also recorded: eliciting tumor regression | 1 | 0.001 to 1 | suppress the growth; also recorded: suppressing the tumor growth; also recorded: eliciting tumor regression | 1 | 0.001 to 1 | 0.001 to 1 | 0.001 to 1 | 0.001 to 1 | 0.001 to 1 | 0.001 to 1 | 0.001 to 1 | 
1 to 1000 | 1 to 1000 | 1 to 1000 | 1 to 1000 | 1 to 1000 | 1 to 1000 | 1 to 1000 | 1 to 1000 | COc1cc(Oc2ncccc2-c2ccncc2)cc(-n2cccn2)c1 [Compound 10, 2-(3-methoxy-5-(1H-pyrazol-1-yl)phenoxy)-3,4′-bipyridine] | suppress the growth; also recorded: suppressing the tumor growth | 1 | 0.001 to 1 | suppress the growth; also recorded: suppressing the tumor growth | 1 | 0.001 to 1 | 0.001 to 1 | 0.001 to 1 | 0.001 to 1 | 0.001 to 1 | 0.001 to 1 | 0.001 to 1 | 
1 to 1000 | 1 to 1000 | 1 to 1000 | 1 to 1000 | 1 to 1000 | 1000 to 10000 | 1 to 1000 |  | COc1cc(OC)cc(Oc2ncccc2-c2ccnc(N)n2)c1 [Compound 19, 4-(2-(3,5-dimethoxyphenoxy)pyridin-3-yl)pyrimidin-2-amine] |  | 1 | 0.001 to 1 |  | 1 | 0.001 to 1 | 0.001 to 1 | 0.001 to 1 | 0.001 to 1 |  | 1 to 10 | 0.001 to 1 | MECP: Minimal effective concentration that elicits polyploidy [20]: A (A: 1 nM < conc. ≤ 1 μM); EC50 [21]: 1000 to 10000 nM; EC50 [22]: 1000 to 10000 nM; MECP: Minimal effective concentration that elicits polyploidy [23]: A (A: 1 nM < conc. ≤ 1 μM); MECP: Minimal effective concentration that elicits polyploidy [24]: A (A: 1 nM < conc. ≤ 1 μM); EC50 [25]: 1 to 1000 nM; MECP: Minimal effective concentration that elicits polyploidy [26]: B (B: 1 μM < conc. ≤ 10 μM); MECP: Minimal effective concentration that elicits polyploidy [27]: A (A: 1 nM < conc. ≤ 1 μM); EC50 [28]: 1 to 1000 nM; EC50 [29]: 1 to 1000 nM; EC50 [30]: 1 to 1000 nM; MECP: Minimal effective concentration that elicits polyploidy [31]: A (A: 1 nM < conc. ≤ 1 μM)
1 to 1000 | 1 to 1000 | 1 to 1000 | 1 to 1000 | 1 to 1000 | 1 to 1000 | 1 to 1000 | 1 to 1000 | CNC(=O)c1cc(Oc2ncccc2-c2ccnc(OC)c2)cc(OC(F)(F)F)c1 [Compound 29, 3-((2′-methoxy-[3,4′-bipyridin]-2-yl)oxy)-N-methyl-5-(trifluoromethoxy)benzamide] | suppress the growth; also recorded: suppressing the tumor growth | 1 | 0.001 to 1 | suppress the growth; also recorded: suppressing the tumor growth | 1 | 0.001 to 1 | 0.001 to 1 | 0.001 to 1 | 0.001 to 1 | 0.001 to 1 | 0.001 to 1 | 0.001 to 1 | 
